Measurements published in patent US11459323B2, “Monocyclic β-lactam compound for treating bacterial infection” (MEDSHINE DISCOVERY INC., priority 2018, dated 2022).
Converted amounts (≈) assume the structure as drawn.

Tests used:
P. aeruginosa ATCC 35151 = experiment: MIC by micro-liquid dilution method (CLSI); assay type: cell-based; conditions: Pseudomonas aeruginosa, ATCC35151
E. coli ATCC 25922 = experiment: MIC by micro-liquid dilution method (CLSI); assay type: cell-based; conditions: Escherichia coli; E. coli ATCC25922; read-out: MIC
[1] = system: Acinetobacter baumannii ATCC 17978; experiment: MIC on Acinetobacter baumannii strains; assay type: cell-based; conditions: ATCC17978
Description: (§1) Twelve strains of Acinetobacter baumannii, A. baumannii ATCC 17978 (ATCC-BAA-1605, ATCC-BAA-1789, ATCC-BAA-1790, ATCC-BAA-1791, ATCC-BAA-1792, ATCC-BAA-1793, ATCC-BAA-1794, ATCC-BAA-1795, ATCC-BAA-1799, ATCC-BAA-1800, ATCC 19606, ATCC 17978) were used to determine the minimum inhibitory concentration (MIC) of the compounds by micro-liquid dilution method according to the Institute of Clinical and Laboratory Standard (CLSI) requirements.

[2] = system: Acinetobacter baumannii ATCC 19606; experiment: MIC on Acinetobacter baumannii strains; assay type: cell-based; conditions: ATCC19606
Description: as §1

[3] = system: Acinetobacter baumannii ATCC-BAA-1605; experiment: MIC on Acinetobacter baumannii strains; assay type: cell-based; conditions: ATCCBAA1605
Description: as §1

[4] = system: Acinetobacter baumannii ATCC-BAA-1789; experiment: MIC on Acinetobacter baumannii strains; assay type: cell-based; conditions: ATCCBAA1789
Description: as §1

[5] = system: Acinetobacter baumannii ATCC-BAA-1790; experiment: MIC on Acinetobacter baumannii strains; assay type: cell-based; conditions: ATCCBAA1790, ATCC-BAA-1790, read-out: MIC
Description: as §1

[6] = system: Acinetobacter baumannii ATCC-BAA-1791; experiment: MIC on Acinetobacter baumannii strains; assay type: cell-based; conditions: ATCCBAA1791
Description: as §1

[7] = system: Acinetobacter baumannii ATCC-BAA-1792; experiment: MIC on Acinetobacter baumannii strains; assay type: cell-based; conditions: ATCCBAA1792, ATCC-BAA-1792, read-out: MIC
Description: as §1

[8] = system: Acinetobacter baumannii ATCC-BAA-1793; experiment: MIC on Acinetobacter baumannii strains; assay type: cell-based; conditions: ATCCBAA1793, ATCC-BAA-1793, read-out: MIC
Description: as §1

[9] = system: Acinetobacter baumannii ATCC-BAA-1794; experiment: MIC on Acinetobacter baumannii strains; assay type: cell-based; conditions: ATCCBAA1794, ATCC-BAA-1794, read-out: MIC
Description: as §1

[10] = system: Acinetobacter baumannii ATCC-BAA-1795; experiment: MIC on Acinetobacter baumannii strains; assay type: cell-based; conditions: ATCCBAA1795
Description: as §1

[11] = system: Acinetobacter baumannii ATCC-BAA-1799; experiment: MIC on Acinetobacter baumannii strains; assay type: cell-based; conditions: ATCCBAA1799
Description: as §1

[12] = system: Acinetobacter baumannii ATCC-BAA-1800; experiment: MIC on Acinetobacter baumannii strains; assay type: cell-based; conditions: ATCCBAA1800, ATCC-BAA-1800, read-out: MIC
Description: as §1

[13] = system: Acinetobacter baumannii C312; experiment: MIC on clinically isolated bacteria; assay type: cell-based; conditions: Acinetobacter baumannii C312; read-out: Minimum Inhibitory Concentration (MIC)
Description: (§2) Twenty-five strains of clinically isolated Acinetobacter baumannii and twenty-seven strains of Pseudomonas aeruginosa were respectively selected and used to determine the minimum inhibitory concentration (MIC) of the compounds by micro-liquid dilution method according to the Institute of Clinical and Laboratory Standard (CLSI) requirements.

[14] = system: Acinetobacter baumannii C315; experiment: MIC on clinically isolated bacteria; assay type: cell-based; conditions: Acinetobacter baumannii C315; read-out: Minimum Inhibitory Concentration (MIC)
Description: as §2

[15] = system: Acinetobacter baumannii C330; experiment: MIC on clinically isolated bacteria; assay type: cell-based; conditions: Acinetobacter baumannii C330; read-out: Minimum Inhibitory Concentration (MIC)
Description: as §2

[16] = system: Acinetobacter baumannii C403; experiment: MIC on clinically isolated bacteria; assay type: cell-based; conditions: Acinetobacter baumannii C403; read-out: Minimum Inhibitory Concentration (MIC)
Description: as §2

[17] = system: Pseudomonas aeruginosa M4; experiment: MIC on clinically isolated bacteria; assay type: cell-based; conditions: read-out: MIC
Description: as §2

[18] = system: Pseudomonas aeruginosa W24; experiment: MIC on clinically isolated bacteria; assay type: cell-based; conditions: read-out: MIC
Description: as §2

[19] = system: Pseudomonas aeruginosa W27; experiment: MIC on clinically isolated bacteria; assay type: cell-based; conditions: read-out: MIC
Description: as §2

[20] = system: Pseudomonas aeruginosa W28; experiment: MIC on clinically isolated bacteria; assay type: cell-based; conditions: read-out: MIC
Description: as §2

[21] = system: Pseudomonas aeruginosa W29; experiment: MIC on clinically isolated bacteria; assay type: cell-based; conditions: read-out: MIC
Description: as §2

[22] = system: Pseudomonas aeruginosa W42; experiment: MIC on clinically isolated bacteria; assay type: cell-based; conditions: read-out: MIC
Description: as §2

[23] = system: Pseudomonas aeruginosa W47; experiment: MIC on clinically isolated bacteria; assay type: cell-based; conditions: read-out: MIC
Description: as §2

[24] = system: Pseudomonas aeruginosa W6; experiment: MIC on clinically isolated bacteria; assay type: cell-based; conditions: read-out: MIC
Description: as §2

[25] = system: Pseudomonas aeruginosa PA14; experiment: Lungs of immunosuppressed mice infected with Pseudomonas aeruginosa (2), lung bacterial load; assay type: in vivo; conditions: 24 hours after infection, day, ip at 2 h, 4 h, 6 h, 8 h
Description: Pseudomonas aeruginosa PA14. 60 mice were intraperitoneally injected with 150 mg/kg cyclophosphamide on day 1 and day 4 to give immunosuppressed mice. […] [table] The mice were injected with 50 μL of bacterial solution (2×10^3 CFU) through the airway. 2 hours after the infection, 4 mice in the model group was sacrificed by removing cervical vertebra. Two hours after infection, the drugs were administered by groups, and the mice were administered intraperitoneally once at 2 hours, 4 hours, 6 hours, and 8 hours, a total of 4 times. Mice of each group were sacrificed by removing cervical vertebra 24 hours after infection, lung and kidney tissues were taken aseptically and put into a sterilized tissue homogenate tube, weighed, and an appropriate amount of normal saline (NS) was added, the mixture was homogenized by a homogenizer for 1 min, the lung tissues of the model group were diluted 10^4, 10^5, 10^6 times, the lung tissues of each administration group were diluted 10, 100 times, the kidney tissues of the model group were diluted 10^2, 10^3, 10^4 times, and the lung tissues of each administration group were diluted 10 times, the obtained mixtures were coated on TSA plates using spiral coater, then incubated at 37° C. overnight, and the CFU was counted with a colony counter. Graphpad Prism mapping software was used to make scatter plots of lung tissue CFU. SPSS19.0 software was used to count CFU and average body weight, and analysis of variance was used to analyze differences between groups.

C[C@H]1[C@H](NC(=O)/C(=N\OC(C)(C)C(=O)O)c2csc(N)n2)C(=O)N1S(=O)(=O)O [Aztreonam, reference compound] was tested, and the MIC (P. aeruginosa ATCC 35151) was at most 0.125 µg/mL, the MIC (E. coli ATCC 25922) was 0.25 µg/mL (≈ 0.574 µM) and the MIC [1] was 32 µg/mL (≈ 73.5 µM). The MIC [2] was 32 µg/mL (≈ 73.5 µM), the MIC [3] was 128 µg/mL (≈ 294 µM) and the MIC [4] was 64 µg/mL (≈ 147 µM). The MIC [5] was 32 µg/mL (≈ 73.5 µM), the MIC [6] was 32 µg/mL (≈ 73.5 µM) and the MIC [7] was 64 µg/mL (≈ 147 µM). For the same molecule, the MIC [8] was 64 µg/mL (≈ 147 µM), the MIC [9] was 32 µg/mL (≈ 73.5 µM) and the MIC [10] was 32 µg/mL (≈ 73.5 µM). It also gave an MIC [11] of 128 µg/mL (≈ 294 µM), an MIC [12] of 32 µg/mL (≈ 73.5 µM) and an MIC [13] of 64 µg/mL (≈ 147 µM). For the same molecule, the MIC [14] was 64 µg/mL (≈ 147 µM), the MIC [15] was 64 µg/mL (≈ 147 µM) and the MIC [16] was 64 µg/mL (≈ 147 µM). For the same molecule, the MIC [17] was under 0.25 µg/mL, the MIC [18] was 32 µg/mL (≈ 73.5 µM) and the MIC [19] was 32 µg/mL (≈ 73.5 µM). The MIC [20] was 32 µg/mL (≈ 73.5 µM), the MIC [21] was 32 µg/mL (≈ 73.5 µM) and the MIC [22] was 16 µg/mL (≈ 36.7 µM). The MIC [23] was 16 µg/mL (≈ 36.7 µM), the MIC [24] was 32 µg/mL (≈ 73.5 µM) and the LOG10-of bacterial load ([25]; total dosage 100 mg/kg) was 6.91 ± 1.63.

Work on CC1(C)[C@H](NC(=O)/C(=N\O[C@@H](COc2ccc3c(c2)CN(C(=N)NCCCCN)C3)C(=O)O)c2csc(N)n2)C(=O)N1OS(=O)(=O)O [Compound 36] yielded an MIC [13] of 2 µg/mL (≈ 2.87 µM), an MIC [14] of 2 µg/mL (≈ 2.87 µM) and an MIC [15] of 2 µg/mL (≈ 2.87 µM). It also gave an MIC [16] of 2 µg/mL (≈ 2.87 µM), an MIC [17] of 1 µg/mL (≈ 1.43 µM) and an MIC [18] of 0.5 µg/mL (≈ 0.717 µM). It also gave an MIC [19] of 0.5 µg/mL (≈ 0.717 µM), an MIC [20] of 4 µg/mL (≈ 5.73 µM) and an MIC [21] of 0.5 µg/mL (≈ 0.717 µM). For the same molecule, the MIC [22] was 0.25 µg/mL (≈ 0.358 µM), the MIC [23] was 0.5 µg/mL (≈ 0.717 µM) and the MIC [24] was 0.5 µg/mL (≈ 0.717 µM).

CC1(C)[C@H](NC(=O)/C(=N\O[C@@H](COc2ccc3c(c2)CN(C(=N)N[C@@H]2CCCNC2)C3)C(=O)O)c2csc(N)n2)C(=O)N1OS(=O)(=O)O [Compound 41] gave an MIC [13] of 2 µg/mL (≈ 2.82 µM), an MIC [14] of 2 µg/mL (≈ 2.82 µM) and an MIC [15] of 2 µg/mL (≈ 2.82 µM). The MIC [16] was 4 µg/mL (≈ 5.64 µM), the MIC [17] was 0.5 µg/mL (≈ 0.704 µM) and the MIC [18] was 2 µg/mL (≈ 2.82 µM). For the same molecule, the MIC [19] was 4 µg/mL (≈ 5.64 µM), the MIC [20] was 4 µg/mL (≈ 5.64 µM) and the MIC [21] was 1 µg/mL (≈ 1.41 µM). It also gave an MIC [22] of 0.5 µg/mL (≈ 0.704 µM), an MIC [23] of 2 µg/mL (≈ 2.82 µM) and an MIC [24] of 4 µg/mL (≈ 5.64 µM). The LOG10-of bacterial load ([25]; total dosage 20 mg/kg) was 4.12 ± 1.50 and the LOG10-of bacterial load ([25]; total dosage 60 mg/kg) was 3.65 ± 2.15.

In the case of CC1(C)[C@H](NC(=O)/C(=N\O[C@@H](COc2ccc3c(c2)CN(C(=N)NOCCN)C3)C(=O)O)c2csc(N)n2)C(=O)N1OS(=O)(=O)O [Compound 43], the MIC [13] is reported as 8 µg/mL (≈ 11.7 µM), the MIC [14] is reported as 8 µg/mL (≈ 11.7 µM) and the MIC [15] is reported as 8 µg/mL (≈ 11.7 µM). For the same molecule, the MIC [16] was 16 µg/mL (≈ 23.3 µM), the MIC [17] was 0.25 µg/mL (≈ 0.365 µM) and the MIC [18] was 8 µg/mL (≈ 11.7 µM). For the same molecule, the MIC [19] was 8 µg/mL (≈ 11.7 µM), the MIC [20] was 8 µg/mL (≈ 11.7 µM) and the MIC [21] was 8 µg/mL (≈ 11.7 µM). For the same molecule, the MIC [22] was 1 µg/mL (≈ 1.46 µM), the MIC [23] was 8 µg/mL (≈ 11.7 µM) and the MIC [24] was 8 µg/mL (≈ 11.7 µM).
